In brackets after ≈: the same amount, converted by molar mass.
Columns and labels:
TPC-1 = test: Cytotoxicity test (MTT, 72 h); conditions: Homo sapiens, TPC1, 72 h, read-out: 50% Inhibiting Concentration value (IC50)
Protocol: (§2) Cells at logarithmic growth period are inoculated in a 96-well plate overnight, then drugs with a certain gradient concentrations are added, and incubation is carried out in a cell culture chamber (5% CO2, 37° C.) for 72 h.

tumor = test: Multi-dose in vivo antitumor activity, tumor volume (Example 20); set-up: species or system mice; conditions: for Mouse Tumor Volume: caudal vein once every 2 days
Protocol: (§1) The drugs are administered through the caudal veins of mice once every 2 days for a total of 7 times.
Tumor volume is measured every three days from day 0. The maximum diameter (a) of the tumor is measured first, and then the longest radial line (b) perpendicular to the maximum diameter is measured, using mm as unit. Tumor volume is calculated according to the following formula: […]

PANC-1 = test: Cytotoxicity test (MTT, 72 h); conditions: Homo sapiens, PANC-1, 72 h, read-out: 50% Inhibiting Concentration value (IC50)
Protocol: as §2

Hela = test: Cytotoxicity test (MTT, 72 h); conditions: Homo sapiens, read-out: 50% Inhibiting Concentration value (IC50)
Protocol: (§3) In order to investigate the antitumor activities of the compounds, a variety of tumor cell lines for test are selected. Cells at logarithmic growth period are inoculated in a 96-well plate overnight, then drugs with a certain gradient concentrations are added, and incubation is carried out in a cell culture chamber (5% CO2, 37° C.) for 72 h.

HepG2 = test: Cytotoxicity test (MTT, 72 h); conditions: Homo sapiens, HepG2, 72 h, read-out: 50% Inhibiting Concentration value (IC50)
Protocol: as §3

[1] = Solubility test, equilibrium method, UV-visible spectrophotometry; assay type: physicochemical; conditions: thermodynamic from solid
Method in brief: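 Equilibrium solubility measured by UV-visible spectrophotometry. Reference solution of known concentration (C0) prepared in methanol; test concentration calculated as Cx=(Ax/A0)C0 from absorbance ratio of test to reference solution.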

HCT-116 = test: Cytotoxicity test (MTT, 72 h); conditions: Homo sapiens, HCT-116, 72 h, read-out: 50% Inhibiting Concentration value (IC50)
Protocol: as §3

H1975 = test: Cytotoxicity test (MTT, 72 h); conditions: Homo sapiens, NCI-H1975, 72 h, read-out: 50% Inhibiting Concentration value (IC50)
Protocol: as §3

BGC-823 = test: Cytotoxicity test (MTT, 72 h); conditions: Homo sapiens, BGC-823, 72 h, read-out: 50% Inhibiting Concentration value (IC50)
Protocol: as §3

SKOV-3 = test: Cytotoxicity test (MTT, 72 h); conditions: Homo sapiens, SK-OV-3, 72 h, read-out: 50% Inhibiting Concentration value (IC50)
Protocol: as §2

143B = test: Cytotoxicity test (MTT, 72 h); conditions: Homo sapiens, read-out: 50% Inhibiting Concentration value (IC50)
Protocol: as §3

[2] = In vivo antitumor activity study, mouse weight (Example 19); set-up: species or system mice; conditions: 13.73 mg/kg i.v. once every three days
ECA-109 = test: Cytotoxicity test (MTT, 72 h); conditions: Homo sapiens, ECa-109, 72 h, read-out: 50% Inhibiting Concentration value (IC50)
Protocol: as §3

[3] = system: colon cancer cells SW-480; test: In vivo antitumor activity, tumor volume (Example 19); set-up: species or system mice; conditions: for Mouse Tumor Volume: 13.73 mg/kg i.v. once every three days, average, n = 6
[4] = Multi-dose in vivo antitumor activity study, mouse weight (Example 20); set-up: species or system mice; conditions: caudal vein once every 2 days
Protocol: as §1
At the end of the treatment cycle, the orbital venous blood of the mice is collected for later blood routine test, the mice are killed by cervical dislocation method, and tumors are removed immediately and photographed. From day 0, the mice in each group are weighed every three days, and the weights are recorded. The weight average value of each group is calculated, and mouse weight variation curve is drawn according to statistical data. At the end of the treatment cycle, tumors are removed from anesthetized mice immediately and weighted, and the tumor weight of each group is recorded. The tumor inhibition rate (%) is calculated according to the following formula: […]

[5] = day 0, high-dose group (H) 13.73 mg/kg
[6] = day 0, low-dose group (L) 3.433 mg/kg
[7] = day 0, medium-dose group (M) 6.865 mg/kg
[8] = day 3, high-dose group (H) 13.73 mg/kg
[9] = day 3, low-dose group (L) 3.433 mg/kg
[10] = day 3, medium-dose group (M) 6.865 mg/kg
[11] = day 6, high-dose group (H) 13.73 mg/kg
[12] = day 6, low-dose group (L) 3.433 mg/kg
[13] = day 6, medium-dose group (M) 6.865 mg/kg
[14] = day 9, high-dose group (H) 13.73 mg/kg
[15] = day 9, low-dose group (L) 3.433 mg/kg
[16] = day 9, medium-dose group (M) 6.865 mg/kg
[17] = day 12, high-dose group (H) 13.73 mg/kg
[18] = day 12, low-dose group (L) 3.433 mg/kg
[19] = day 12, medium-dose group (M) 6.865 mg/kg
[20] = day 15, high-dose group (H) 13.73 mg/kg
[21] = day 15, low-dose group (L) 3.433 mg/kg
[22] = day 15, medium-dose group (M) 6.865 mg/kg
[23] = day 18, high-dose group (H) 13.73 mg/kg
[24] = day 18, low-dose group (L) 3.433 mg/kg
[25] = day 18, medium-dose group (M) 6.865 mg/kg
[26] = day 21, high-dose group (H) 13.73 mg/kg
[27] = day 21, low-dose group (L) 3.433 mg/kg
[28] = day 21, medium-dose group (M) 6.865 mg/kg

## CCc1c2c(nc3ccc(OC(=O)OCCOCCOCCOCc4cn(CCO[C@H]5O[C@@H](CO)[C@H](O)[C@@H](O)[C@@H]5O)nn4)cc13)-c1cc3c(c(=O)n1C2)COC(=O)[C@]3(O)CC [Compound 58]
TPC-1
  IC50: 11.2 µM
tumor; [5]
  Mouse Tumor Volume: 120.63 mm^3
tumor; [6]
  Mouse Tumor Volume: 110.67 mm^3
tumor; [7]
  Mouse Tumor Volume: 113.01 mm^3
tumor; [8]
  Mouse Tumor Volume: 151.62 mm^3
tumor; [9]
  Mouse Tumor Volume: 164.30 mm^3
tumor; [10]
  Mouse Tumor Volume: 106.18 mm^3
tumor; [11]
  Mouse Tumor Volume: 206.78 mm^3
tumor; [12]
  Mouse Tumor Volume: 235.34 mm^3
tumor; [13]
  Mouse Tumor Volume: 122.56 mm^3
tumor; [14]
  Mouse Tumor Volume: 254.08 mm^3
tumor; [15]
  Mouse Tumor Volume: 252.37 mm^3
tumor; [16]
  Mouse Tumor Volume: 151.19 mm^3
tumor; [17]
  Mouse Tumor Volume: 317.44 mm^3
tumor; [18]
  Mouse Tumor Volume: 316.07 mm^3
tumor; [19]
  Mouse Tumor Volume: 141.38 mm^3
tumor; [20]
  Mouse Tumor Volume: 430.78 mm^3
tumor; [21]
  Mouse Tumor Volume: 375.47 mm^3
tumor; [22]
  Mouse Tumor Volume: 141.13 mm^3
tumor; [23]
  Mouse Tumor Volume: 519.79 mm^3
tumor; [24]
  Mouse Tumor Volume: 401.94 mm^3
tumor; [25]
  Mouse Tumor Volume: 134.18 mm^3
tumor; [26]
  Mouse Tumor Volume: 555.67 mm^3
tumor; [27]
  Mouse Tumor Volume: 433.61 mm^3
tumor; [28]
  Mouse Tumor Volume: 142.06 mm^3
tumor; high-dose group, after last administration
  increase of tumor volume compared with other groups (in words): slowest increase
tumor; high-dose groups, same dosage (10 mg/kg), p<0.001
  tumor inhibition effects of the high-dose groups compared with CPT-11 (in words): better than that of positive control group CPT-11
tumor; low, medium and high dose
  dose dependence of tumor inhibition (in words): dose-dependent
PANC-1
  IC50: 3.65 µM
Hela
  IC50: 3.65 µM
HepG2
  IC50: 0.625 µM
[1]; aqueous with cosolvent or surfactant or cyclodextrin
  solubility: 5330 µg/mL (≈ 6.23 mM)
[1]; pH 7.4, aqueous buffer
  solubility: 1580 µg/mL (≈ 1.84 mM)
[1]; saline or isotonic
  solubility: 3590 µg/mL (≈ 4.2 mM)
[1]; water
  solubility: 2550 µg/mL (≈ 2.98 mM)
HCT-116
  IC50: 2 µM
H1975
  IC50: 9.35 µM
BGC-823
  IC50: 0.212 µM
SKOV-3
  IC50: 0.75 µM
143B
  IC50: 7.79 µM
[2]; day 0
  Mouse Weight: 23.57 g
[2]; day 3
  Mouse Weight: 23.71 g
[2]; day 6
  Mouse Weight: 24.00 g
[2]; day 9
  Mouse Weight: 24.76 g
[2]; day 12
  Mouse Weight: 24.93 g
[2]; day 15
  Mouse Weight: 24.34 g
[2]; day 18
  Mouse Weight: 24.04 g
[2]; day 21
  Mouse Weight: 24.12 g
ECA-109
  IC50: 4.38 µM
[3]; day 0
  Mouse Tumor Volume: 235.22 mm^3
[3]; day 3
  Mouse Tumor Volume: 202.08 mm^3
[3]; day 6
  Mouse Tumor Volume: 98.87 mm^3
[3]; day 9
  Mouse Tumor Volume: 118.41 mm^3
[3]; day 12
  Mouse Tumor Volume: 80.63 mm^3
[3]; day 15
  Mouse Tumor Volume: 38.37 mm^3
[3]; day 18
  Mouse Tumor Volume: 40.03 mm^3
[3]; day 21
  Mouse Tumor Volume: 7.16 mm^3
[3]; dosage two-thirds of the molar fraction of CPT-11
  inhibition rates on colon cancer cell SW-480 compared with CPT-11 (in words): significantly higher inhibition rates
[4]; [5]
  Mouse Weight: 16.69 g
[4]; [6]
  Mouse Weight: 17.94 g
[4]; [7]
  Mouse Weight: 16.55 g
[4]; [8]
  Mouse Weight: 17.60 g
[4]; [9]
  Mouse Weight: 16.34 g
[4]; [10]
  Mouse Weight: 16.61 g
[4]; [11]
  Mouse Weight: 16.26 g
[4]; [12]
  Mouse Weight: 16.36 g
[4]; [13]
  Mouse Weight: 15.81 g
[4]; [14]
  Mouse Weight: 17.28 g
[4]; [15]
  Mouse Weight: 17.00 g
[4]; [16]
  Mouse Weight: 17.23 g
[4]; [17]
  Mouse Weight: 16.88 g
[4]; [18]
  Mouse Weight: 16.96 g
[4]; [19]
  Mouse Weight: 16.17 g
[4]; [20]
  Mouse Weight: 16.61 g
[4]; [21]
  Mouse Weight: 16.41 g
[4]; [22]
  Mouse Weight: 15.46 g
[4]; [23]
  Mouse Weight: 16.06 g
[4]; [24]
  Mouse Weight: 17.28 g
[4]; [25]
  Mouse Weight: 16.47 g
[4]; [26]
  Mouse Weight: 16.50 g
[4]; [27]
  Mouse Weight: 16.97 g
[4]; [28]
  Mouse Weight: 16.65 g

From patent US20210246157A1, “CAMPTOTHECIN DERIVATIVES AND PREPARATION METHODS AND APPLICATIONS THEREOF” (priority 2018, published 2021)
